System: MS2 DNA sequence
Assay: DNA footprinting study against the MS2 DNA sequence
Assay type: binding, bacteriophage
Details: cleavage pattern on electrophoresis gel
Experimental: In order to assess the binding of test compounds to DNA, a footprinting study against the MS2 DNA sequence was carried out. The sequence is as follows:
and is derived from a bacteriophage.
The footprinting technique in the context of DNA allows the determination of binding sites for drugs or biological macromolecules. It relies on the fact that DNA is cleaved relatively non-specifically by free radicals (e.g. hydroxyl radical footprinting) or enzymes (e.g. DNase I footprinting). Thus if DNA is 32p end labelled on one strand (so that it may be observed autoradiographically) and exposed to the cleavage agent for a certain time, then a laddering pattern may be seen when the resulting fragments are separated by gel electrophoresis (separation on the basis of size). If a compound which binds to DNA is added prior to the cleavage agent then this hinders access of the enzyme or radical to the DNA and blocks cleavage at the molecule binding site. Thus if the compound binds discretely then a specific cleavage block should be seen on the gel relative to the DNA not treated with compound, which is termed the ‘footprint’. (see FIG. 1)

Question: What does the source list for `CCOC(=O)c1csc(-c2ccc(NC(=O)c3csc(-c4ccc(NC(=O)CCCN(C)C)cc4)n3)cc2)n1` [Compound 9, Ethyl 2-[4-({2-[4-(4-dimethylaminobutyrylamino)phenyl]thiazole-4-carbonyl}amino)phenyl]thiazole-4-carboxylate]?
Answer: coating event: no clear coating event; specific footprinting activity: no specific footprinting activity
